Our source for the IC50 values is patent publication US20140343017A1, “PYRROLE COMPOUND” (Kabushiki Kaisha Yakult Honsha, priority 2012, published 2014).

Structures are written as SMILES.

What all share (experiment): Inhibitory effect on growth of human cancer cells (in vitro), WST-8
Common to all, as to format: cell-based
A general note: Tetrazolium assays rely on reduction of a dye to a coloured formazan, in cell work by metabolically active cells.

The test system of test [1] is human colorectal cancer HCT116 cells. The note with it: 96 hours culture. Here is the method:
(§1) Each pyrrole compound of the present invention was studied for its effects on the growth of human non-small cell lung cancer A549 cells and human colorectal cancer HT-29 cells and HCT116 cells. The cells of each line were suspended in an RPMI1640 medium supplemented with 10% fetal bovine serum and inoculated at a cell density of 1000 cells/50 μL/well to a 96-well plate. After overnight culture, each compound diluted with a medium was added thereto at a concentration of 50 μL/well, and the cells were further cultured for 96 hours. After the completion of culture, WST-8 (Seikagaku Corp.) was added thereto at a concentration of 10 μL/well, and the cells were cultured at 37° C. for approximately 1 hour under 5% CO2 conditions, followed by measurement of absorbance at 450 nm.

For test [2], the system named is human colorectal cancer HT-29 cells. The note with it: Homo sapiens, HT-29, 96 h, 96 hours culture, read-out: IC50 (nM) HT29. As to the method: as §1
Test [3] concerns human non-small cell lung cancer A549 cells. The note with it: 96 hours culture. As to the method:
as §1

On to `Cc1[nH]c(-c2nnn(CCN)n2)c(C)c1C(=O)c1cccc(Br)c1` [Compound 103, (5-(2-(2-aminoethyl)-2H-tetrazol-5-yl)-2,4-dimethyl-1H-pyrrol-3-yl)(3-bromophenyl)methanone], for which the IC50 (commonly the concentration needed to halve the response being measured) was found to be 182 nM in test [1] (Homo sapiens, HCT-116, 96 h); 43.3 nM in test [2]; 87.8 nM in test [3] (Homo sapiens, A549, 96 h).

As to `CC(=O)OCCn1nnc(-c2[nH]c(C)c(C(=O)c3cccc(Br)c3)c2C)n1` [Compound 104, 2-(5-(4-(3-bromobenzoyl)-3,5-dimethyl-1H-pyrrol-2-yl)-2H-tetrazol-2-yl)ethyl acetate], the IC50 amounted to 8.5 nM in test [1] (Homo sapiens, HCT-116, 96 h); 8.5 nM in test [2]; 11 nM in test [3] (Homo sapiens, A549, 96 h).

For the compound `Cc1[nH]c(-c2nnn(CCO)n2)c(C)c1C(=O)c1cccc(C2CC2)c1` [Compound 115, (3-cyclopropylphenyl)(5-(2-(2-hydroxyethyl)-2H-tetrazol-5-yl)-2,4-dimethyl-1H-pyrrol-3-yl)methanone], the concentration for half-maximal inhibition (IC50) in test [1] (Homo sapiens, HCT-116, 96 h) came out at 41 nM; in test [2], 42.5 nM; in test [3] (Homo sapiens, A549, 96 h), 49.2 nM.

On to `Cc1c(-c2nnn(CCO)n2)[nH]c(C=O)c1C(=O)c1cccc(Br)c1` [Compound 117, 3-(3-bromobenzoyl)-5-(2-(2-hydroxyethyl)-2H-tetrazol-5-yl)-4-methyl-1H-pyrrole-2-carboaldehyde], for which the IC50 in test [1] (Homo sapiens, HCT-116, 96 h) is 118 nM; in test [2], 42.1 nM; in test [3] (Homo sapiens, A549, 96 h), 83 nM.

`Cc1c(-c2nnn(CCO)n2)[nH]c(C(F)F)c1C(=O)c1cccc(Br)c1` [Compound 119, (3-bromophenyl)(2-(difluoromethyl)-5-(2-(2-hydroxyethyl)-2H-tetrazol-5-yl)-4-methyl-1H-pyrrol-3-yl)methanone]: the IC50 in test [1] (Homo sapiens, HCT-116, 96 h) was 145 nM; in test [2], 42.6 nM; in test [3] (Homo sapiens, A549, 96 h) it was 50.1 nM.

As to `COc1ccc(C(=O)c2c(C=O)[nH]c(-c3nnn(CCOC(C)=O)n3)c2C)cc1Br` [Compound 124, 2-(5-(4-(3-bromo-4-methoxybenzoyl)-5-formyl-3-methyl-1H-pyrrol-2-yl)-2H-tetrazol-2-yl)ethyl acetate], the 50% inhibitory concentration (IC50) in test [1] (Homo sapiens, HCT-116, 96 h) came out at 37.8 nM; in test [2] it was 30.4 nM; in test [3] (Homo sapiens, A549, 96 h), 38.6 nM.

As for `COc1ccc(C(=O)c2c(C=O)[nH]c(-c3nnn(CCO)n3)c2C)cc1Br` [Compound 125, 3-(3-bromo-4-methoxybenzoyl)-5-(2-(2-hydroxyethyl)-2H-tetrazol-5-yl)-4-methyl-1H-pyrrole-2-carboaldehyde], the IC50 in test [1] (Homo sapiens, HCT-116, 96 h) worked out at 93.2 nM; in test [2], 35.2 nM; in test [3] (Homo sapiens, A549, 96 h), 45.8 nM.

Consider `COc1ccc(C(=O)c2c(C(F)F)[nH]c(-c3nnn(CCOC(C)=O)n3)c2C)cc1Br` [Compound 126, 2-(5-(4-(3-bromo-4-methoxybenzoyl)-5-(difluoromethyl)-3-methyl-1H-pyrrol-2-yl)-2H-tetrazol-2-yl)ethyl acetate], for which the 50% inhibitory concentration (IC50) in test [1] (Homo sapiens, HCT-116, 96 h) was 38.2 nM; in test [2] it was 33.1 nM; in test [3] (Homo sapiens, A549, 96 h), 38.2 nM.

Take `COc1ccc(C(=O)c2c(C(F)F)[nH]c(-c3nnn(CCO)n3)c2C)cc1Br` [Compound 127, (3-bromo-4-methoxyphenyl)(2-(difluoromethyl)-5-(2-(2-hydroxyethyl)-2H-tetrazol-5-yl)-4-methyl-1H-pyrrol-3-yl)methanone]: the IC50 stood at 40.4 nM in test [1] (Homo sapiens, HCT-116, 96 h); 36.9 nM in test [2]; 44.7 nM in test [3] (Homo sapiens, A549, 96 h).

Take `COc1ccc(C(=O)c2c(CO)[nH]c(-c3nnn(CCOC(C)=O)n3)c2C)cc1Br` [Compound 128, 2-(5-(4-(3-bromo-4-methoxybenzoyl)-5-(hydroxymethyl)-3-methyl-1H-pyrrol-2-yl)-2H-tetrazol-2-yl)ethyl acetate]: the IC50 turned out to be 22.4 nM in test [1] (Homo sapiens, HCT-116, 96 h); 27.4 nM in test [2]; 27.8 nM in test [3] (Homo sapiens, A549, 96 h).

As for `COc1ccc(C(=O)c2c(CO)[nH]c(-c3nnn(CCO)n3)c2C)cc1Br` [Compound 129, (3-bromo-4-methoxyphenyl)(5-(2-(2-hydroxyethyl)-2H-tetrazol-5-yl)-2-(hydroxymethyl)-4-methyl-1H-pyrrol-3-yl)methanone], the IC50 worked out at 41.2 nM in test [1] (Homo sapiens, HCT-116, 96 h); 34.2 nM in test [2]; 46.9 nM in test [3] (Homo sapiens, A549, 96 h).

Take `COc1ccc(C(=O)c2c(C(C)O)[nH]c(-c3nnn(CCOC(C)=O)n3)c2C)cc1Br` (stereo not drawn) [Compound 130, 2-(5-(4-(3-bromo-4-methoxybenzoyl)-5-(1-hydroxyethyl)-3-methyl-1H-pyrrol-2-yl)-2H-tetrazol-2-yl)ethyl acetate]: the concentration for half-maximal inhibition (IC50) in test [1] (Homo sapiens, HCT-116, 96 h) was determined as 36.9 nM; in test [2], 30.7 nM; in test [3] (Homo sapiens, A549, 96 h) it was 35.5 nM.

Turning to `COc1ccc(C(=O)c2c(C(C)O)[nH]c(-c3nnn(CCO)n3)c2C)cc1Br` (stereo not drawn) [Compound 131, (3-bromo-4-methoxyphenyl)(2-(1-hydroxyethyl)-5-(2-(2-hydroxyethyl)-2H-tetrazol-5-yl)-4-methyl-1H-pyrrol-3-yl)methanone], the IC50 in test [1] (Homo sapiens, HCT-116, 96 h) came out at 90.9 nM; in test [2], 34.8 nM; in test [3] (Homo sapiens, A549, 96 h), 45.1 nM.

As for `CC(=O)OCCn1nnc(-c2[nH]c(C#N)c(C(=O)c3cccc(Br)c3)c2C)n1` [Compound 132, 2-(5-(4-(3-bromobenzoyl)-5-cyano-3-methyl-1H-pyrrol-2-yl)-2H-tetrazol-2-yl)ethyl acetate], the IC50 in test [1] (Homo sapiens, HCT-116, 96 h) was found to be 167 nM; in test [2] it was 179 nM; in test [3] (Homo sapiens, A549, 96 h) it was 248 nM.

For the compound `Cc1c(-c2nnn(CCO)n2)[nH]c(C#N)c1C(=O)c1cccc(Br)c1` [Compound 133, 3-(3-bromobenzoyl)-5-(2-(2-hydroxyethyl)-2H-tetrazol-5-yl)-4-methyl-1H-pyrrole-2-carbonitrile], the IC50 in test [1] (Homo sapiens, HCT-116, 96 h) was found to be 158 nM; in test [2], 192 nM; in test [3] (Homo sapiens, A549, 96 h) it was 238 nM.

In the case of `COC(=O)c1[nH]c(-c2nnn(CCO)n2)c(C)c1C(=O)c1cccc(Br)c1` [Compound 137, methyl 3-(3-bromobenzoyl)-5-(2-(2-hydroxyethyl)-2H-tetrazol-5-yl)-4-methyl-1H-pyrrole-2-carboxylate], the IC50 in test [1] (Homo sapiens, HCT-116, 96 h) came out at 186 nM; in test [2] it was 156 nM; in test [3] (Homo sapiens, A549, 96 h), 278 nM.

As to `COc1ccc(C(=O)c2c(C#N)[nH]c(-c3nnn(CCOC(C)=O)n3)c2C)cc1Br` [Compound 138, 2-(5-(4-(3-bromo-4-methoxybenzoyl)-5-cyano-3-methyl-1H-pyrrol-2-yl)-2H-tetrazol-2-yl)ethyl acetate], the IC50 stood at 167 nM in test [1] (Homo sapiens, HCT-116, 96 h); 170 nM in test [2]; 239 nM in test [3] (Homo sapiens, A549, 96 h).

For `COc1ccc(C(=O)c2c(C#N)[nH]c(-c3nnn(CCO)n3)c2C)cc1Br` [Compound 139, 3-(3-bromo-4-methoxybenzoyl)-5-(2-(2-hydroxyethyl)-2H-tetrazol-5-yl)-4-methyl-1H-pyrrole-2-carbonitrile], the half-maximal inhibitory concentration (IC50) in test [1] (Homo sapiens, HCT-116, 96 h) came out at 171 nM; in test [2] it was 174 nM; in test [3] (Homo sapiens, A549, 96 h), 245 nM.

As for `CNC(=O)c1[nH]c(-c2nnn(CCO)n2)c(C)c1C(=O)c1ccc(OC)c(Br)c1` [Compound 149, 3-(3-bromo-4-methoxybenzoyl)-5-(2-(2-hydroxyethyl)-2H-tetrazol-5-yl)-N,4-dimethyl-1H-pyrrole-2-carboxamide], the IC50 in test [1] (Homo sapiens, HCT-116, 96 h) turned out to be 219 nM; in test [2], 232 nM; in test [3] (Homo sapiens, A549, 96 h) it was 306 nM.

`COc1ccc(C(=O)c2c(C(N)=O)[nH]c(-c3nnn(CCO)n3)c2C)cc1Br` [Compound 150, 3-(3-bromo-4-methoxybenzoyl)-5-(2-(2-hydroxyethyl)-2H-tetrazol-5-yl)-4-methyl-1H-pyrrole-2-carboxamide]: the 50% inhibitory concentration (IC50) came to 181 nM in test [1] (Homo sapiens, HCT-116, 96 h); 145 nM in test [2]; 192 nM in test [3] (Homo sapiens, A549, 96 h).

For the compound `Cc1[nH]c(-c2nnn(CCOC(=O)CN)n2)c(C)c1C(=O)c1cccc(Br)c1` [Compound 152, 2-(5-(4-(3-bromobenzoyl)-3,5-dimethyl-1H-pyrrol-2-yl)-2H-tetrazol-2-yl)ethyl 2-aminoacetate], the IC50 in test [1] (Homo sapiens, HCT-116, 96 h) was found to be 7.8 nM; in test [2] it was 8.3 nM; in test [3] (Homo sapiens, A549, 96 h), 10.8 nM.

Consider `Cc1[nH]c(-c2nnn(CCO)n2)c(C)c1C(=O)c1cccc(CO)c1` [Compound 163, (5-(2-(2-hydroxyethyl)-2H-tetrazol-5-yl)-2,4-dimethyl-1H-pyrrol-3-yl)(3-(hydroxymethyl)phenyl)methanone], for which the IC50 in test [1] (Homo sapiens, HCT-116, 96 h) turned out to be 67.5 nM; in test [2], 73.8 nM; in test [3] (Homo sapiens, A549, 96 h), 305 nM.

In the case of `CCn1nnc(-c2[nH]c(C)c(C(=O)c3cccc(OCCN)c3)c2C)n1` [Compound 165, (3-(2-aminoethoxy)phenyl)(5-(2-ethyl-2H-tetrazol-5-yl)-2,4-dimethyl-1H-pyrrol-3-yl)methanone], the IC50 stood at 40.2 nM in test [1]; 126 nM in test [2]; 359 nM in test [3] (Homo sapiens, A549, 96 h).

Turning to `CCn1nnc(-c2[nH]c(C)c(C(=O)c3ccc(OCCN)c(Br)c3)c2C)n1` [Compound 167, (4-(2-aminoethoxy)-3-bromophenyl) (5-(2-ethyl-2H-tetrazol-5-yl)-2,4-dimethyl-1H-pyrrol-3-yl)methanone], the IC50 is 39.5 nM in test [1] (Homo sapiens, HCT-116, 96 h); 31.5 nM in test [2]; 139 nM in test [3].

On to `Cc1[nH]c(-c2nnn(CCO)n2)c(C)c1C(=O)c1ccc(OCCN)c(Br)c1` [Compound 168, (4-(2-aminoethoxy)-3-bromophenyl)(5-(2-(2-hydroxyethyl)-2H-tetrazol-5-yl)-2,4-dimethyl-1H-pyrrol-3-yl)methanone], for which the half-maximal inhibitory concentration (IC50) is 506 nM in test [1] (Homo sapiens, HCT-116, 96 h); 670 nM in test [2]; 886 nM in test [3] (Homo sapiens, A549, 96 h).
